{"source": "patent US5763235A", "about": "(priority 1994, dated 1998)", "key": {"[1]": {"system": "ALA dehydratase variant of strain CR-514", "assay": "ALA dehydratase reaction with crude enzyme of strain CR-514", "format": "biochemical, Rhodobacter sphaeroides CR-514", "conditions": "enzyme of CR-514, unit not given (concentrations in method in mM)"}, "[2]": {"target": "ALA dehydratase variant of strain CR-520", "assay": "ALA dehydratase reaction with crude enzyme of strain CR-520", "format": "biochemical, Rhodobacter sphaeroides CR-520", "conditions": "inhibitor constant of levulinic acid, Dixon plot; enzyme of CR-520; 37° C., 60 minutes; unit not given (concentrations in method in mM)"}, "[3]": {"target": "ALA dehydratase of Rhodobacter sphaeroides CR-450", "assay": "ALA dehydratase reaction with crude enzyme of CR-450 (Comparative Example 2)", "format": "biochemical", "conditions": "inhibitor constant of levulinic acid, Dixon plot, 37° C., 60 minutes, unit not given (concentrations in method in mM)"}, "[4]": {"system": "Rhodobacter sphaeroides IFO 12203", "conditions": "glycine 30 mM, 30° C., dark", "experimental": "(§1) A 500 ml portion of medium 1 was prepared in a 2 l capacity shaking flask. This was sterilized at 121° C. for 15 minutes and then spontaneously cooled.\n(§2) Separately from this, each of the mutant strains CR-514, CR-520 and CR-533 obtained in Example 3 was inoculated into a 21 mm.phi. test tube containing 10 ml of medium 1 which was sterilized in the same manner as described in the foregoing and cultured in the dark at 30° C. for 48 hours on a shaker.\n(§3) The entire portion of each culture broth was inoculated into the aforementioned shaking flask and cultured in the dark at 30° C. for 48 hours on a shaker, and the resulting cells were collected by centrifugation.\n(§4) The thus collected cells were suspended in 150 ml of sterilized medium 1, to a wet cell density of about 0.3 g/10 ml, and the cell suspension was mixed with 30 mM of glycine and dispensed in 10 ml portions into 21 mm.phi. test tubes. After adding varied concentration of levulinic acid, shaking culture was carried out at 30° C. in the dark.\n(§5) (Clinical Chemistry, 36(8): 1494 (1990))."}, "strain CR-514": {"system": "strain CR-514", "conditions": "glycine 30 mM, 30° C., dark", "experimental": "as §1, §2, §3, §4, §5"}, "strain CR-520": {"system": "strain CR-520", "conditions": "glycine 30 mM, 30° C., dark", "experimental": "as §1, §2, §3, §4, §5"}, "strain CR-533": {"system": "strain CR-533", "conditions": "glycine 30 mM, 30° C., dark", "experimental": "as §1, §2, §3, §4, §5"}, "[5]": {"system": "Rhodobacter sphaeroides CR-450", "conditions": "glycine 30 mM, 30° C., dark", "experimental": "as §1, §2, §3, §4, §5\nThe process of Example 4 was conducted, except that Rhodobacter sphaeroides CR-450 was used and the amount of levulinic acid was changed as shown in Table 3."}, "[6]": {"target": "ALA dehydratase of strain CR-533", "conditions": "inhibitor constant of levulinic acid, Dixon plot; enzyme of CR-533; 37° C., 60 minutes; unit not given (concentrations in method in mM)"}}, "note": "Where two headings read alike, the source gives them in different places."}
{"molecule": "NCC(=O)CCC(=O)O", "note": "[ALA, 5-aminolevulinic acid]", "values": [{"measurement": "Km", "setting": "[1]; Michaelis constant for ALA, Lineweaver-Burk", "value": 0.76, "unit": "mM"}]}
{"molecule": "CC(=O)CCC(=O)O", "note": "[levulinic acid]", "values": [{"measurement": "Ki", "setting": "[1]; inhibitor constant of levulinic acid, Dixon plot, 37° C., 60 minutes", "value": 0.21, "unit": "mM"}, {"measurement": "Ki", "setting": "[2]", "value": 0.07, "unit": "mM"}, {"measurement": "Ki", "setting": "[3]", "value": 0.37, "unit": "mM"}, {"measurement": "Amount of ALA formed after 15 hours", "setting": "[4]; levulinic acid 5 mM", "value": 0.01, "unit": "mM"}, {"measurement": "Amount of ALA formed after 30 hours", "setting": "[4]; levulinic acid 5 mM", "value": 0, "unit": "mM"}, {"measurement": "Amount of ALA formed after 15 hours", "setting": "[4]; levulinic acid 15 mM", "value": 0.1, "unit": "mM"}, {"measurement": "Amount of ALA formed after 30 hours", "setting": "[4]; levulinic acid 15 mM", "value": 0, "unit": "mM"}, {"measurement": "Amount of ALA formed after 15 hours", "setting": "strain CR-514; levulinic acid 1 mM", "value": 1.5, "unit": "mM"}, {"measurement": "Amount of ALA formed after 30 hours", "setting": "strain CR-514; levulinic acid 1 mM", "value": 1.5, "unit": "mM"}, {"measurement": "Amount of ALA formed after 15 hours", "setting": "strain CR-514; levulinic acid 5 mM", "value": 2.0, "unit": "mM"}, {"measurement": "Amount of ALA formed after 30 hours", "setting": "strain CR-514; levulinic acid 5 mM", "value": 3.0, "unit": "mM"}, {"measurement": "Amount of ALA formed after 15 hours", "setting": "strain CR-514; levulinic acid 10 mM", "value": 2.2, "unit": "mM"}, {"measurement": "Amount of ALA formed after 30 hours", "setting": "strain CR-514; levulinic acid 10 mM", "value": 4.1, "unit": "mM"}, {"measurement": "Amount of ALA formed after 15 hours", "setting": "strain CR-520; levulinic acid 0.5 mM", "value": 2.0, "unit": "mM"}, {"measurement": "Amount of ALA formed after 30 hours", "setting": "strain CR-520; levulinic acid 0.5 mM", "value": 2.8, "unit": "mM"}, {"measurement": "Amount of ALA formed after 15 hours", "setting": "strain CR-520; levulinic acid 1 mM", "value": 2.5, "unit": "mM"}, {"measurement": "Amount of ALA formed after 30 hours", "setting": "strain CR-520; levulinic acid 1 mM", "value": 4.5, "unit": "mM"}, {"measurement": "Amount of ALA formed after 15 hours", "setting": "strain CR-520; levulinic acid 5 mM", "value": 3.0, "unit": "mM"}, {"measurement": "Amount of ALA formed after 30 hours", "setting": "strain CR-520; levulinic acid 5 mM", "value": 6.5, "unit": "mM"}, {"measurement": "Amount of ALA formed after 15 hours", "setting": "strain CR-533; levulinic acid 5 mM", "value": 1.7, "unit": "mM"}, {"measurement": "Amount of ALA formed after 30 hours", "setting": "strain CR-533; levulinic acid 5 mM", "value": 2.4, "unit": "mM"}, {"measurement": "Amount of ALA formed after 15 hours", "setting": "strain CR-533; levulinic acid 15 mM", "value": 2.4, "unit": "mM"}, {"measurement": "Amount of ALA formed after 30 hours", "setting": "strain CR-533; levulinic acid 15 mM", "value": 3.9, "unit": "mM"}, {"measurement": "Amount of ALA formed after 15 hours", "setting": "strain CR-533; levulinic acid 30 mM", "value": 2.2, "unit": "mM"}, {"measurement": "Amount of ALA formed after 30 hours", "setting": "strain CR-533; levulinic acid 30 mM", "value": 3.3, "unit": "mM"}, {"measurement": "Amount of ALA formed after 15 hours", "setting": "[5]; levulinic acid 5 mM", "value": 1.5, "unit": "mM"}, {"measurement": "Amount of ALA formed after 30 hours", "setting": "[5]; levulinic acid 5 mM", "value": 1.5, "unit": "mM"}, {"measurement": "Amount of ALA formed after 15 hours", "setting": "[5]; levulinic acid 15 mM", "value": 2.5, "unit": "mM"}, {"measurement": "Amount of ALA formed after 30 hours", "setting": "[5]; levulinic acid 15 mM", "value": 3.8, "unit": "mM"}, {"measurement": "Amount of ALA formed after 15 hours", "setting": "[5]; levulinic acid 30 mM", "value": 2.0, "unit": "mM"}, {"measurement": "Amount of ALA formed after 30 hours", "setting": "[5]; levulinic acid 30 mM", "value": 2.5, "unit": "mM"}, {"measurement": "Ki", "setting": "[6]", "value": 0.36, "unit": "mM"}]}
